Results on nine compounds are retold here after US20230399303A1, “Macrophage Migration Inhibitory Factor Inhibitors, and Methods of Making and Using Same” (YALE UNIVERSITY, priority 2020, published 2023).

The structures appear in SMILES notation.

This test deals with T1, MIF (Homo sapiens, UniProt P14174).
T1 sequence (P14174 2-115 limits assumed): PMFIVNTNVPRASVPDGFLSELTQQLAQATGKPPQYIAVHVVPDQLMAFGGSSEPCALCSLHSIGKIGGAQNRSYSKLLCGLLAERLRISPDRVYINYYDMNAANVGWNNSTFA
The test is described as follows: Competitive fluorescence polarization (FP) assay with tracer ligand B. The class given is binding. Conditions: MIF Inhibition by Compounds of formula (Ia); Kd calculated from the IC50 of the competitive FP assay, fluorescent ligand B as tracer. On the procedure: Determination of the affinities for A and B by FP assay. Determination of Kd values for the tracers followed previously reported protocols for other proteins. Experiments are carried out by quadruplicates in three independent experiments. In a flat black bottom 96 well plate (Corning), add to the third column 300 μL of 1.8 μM MIF in FP buffer (20 mM HEPES, 150 mM NaCl, 0.01% Tween-20, pH 7.4). From this column, using a multichannel pipette make serial dilutions (1:2) into the following wells to a total volume of 150 μL. First column contains 200 μL buffer and is used as a blank, while second column contains 150 μL buffer. 2 μL of DMSO are added to each well to keep 1% of DMSO, followed by the addition of 16.7 nM ligand A or B (48 μL) except first column (blank). Fluorescence polarization is measured at λexc=485±20 nm, λem=535±25 nm using an Infinite F500 plate reader until no FP variation was observed (typically 1 h). From the lowest and highest FP values (tracer free and tracer fully bound to MIF) we calculated the fraction of ligand bound to the protein to ligand total (Lb/Lt) for each concentration of MIF.
Competitive FP assay. In order to calculate the Kd values of the unlabeled compounds, competitive assays were carried out in quadruplicates in three independent experiments. In a flatblack bottom 96 well plate (Corning) 140 μL of FP buffer are added to columns 3-12. First column contains 200 μL buffer (blank), while second column contains 150 μL FP buffer. 10 μL of 1.1 μM MIF are added to columns 3-12 followed by the addition of 2 μL of inhibitor in DMSO at 9 different concentrations. 2 μL of DMSO are added to columns 1-3. After 20 min of incubation at rt 48 μL of 16.7 nM ligand B are added to columns 2-12 and fluorescencepolarization was measured at λexc=485±20 nm, λem=535±25 nm for 1 h. Data are analyzed by a least-squares non-linear fit, generated using Prism 6 in order to determine the compound's IC50. Kd values for each inhibitor are calculated using the following equation based on the IC50, Kd of the tracer (K^t), total (Lt) and bound (Lb) tracer, as well as total MIF concentration (Pt). Samples of 4-IPP and Pontamine Sky Blue were purchased both from Tocris and Santa Cruz Biotechnology.
Usually Kd stands for the concentration at which binding is half-saturated. As for `O=C1Oc2cc(O)ccc2CN1c1ccc(OCCOCCOCCN2CCOCC2)cc1` [Compound C7], the Kd is 0.023 ± 0.006 µM.

Turning to `O=C1Oc2cc(O)ccc2CN1c1ccc(C23CC4CC(CC(C4)C2)C3)cc1` [Compound C6], the Kd was 0.828 ± 0.044 µM.

`O=C(O)CCCOc1ccc(N2Cc3ccc(O)cc3OC2=O)cc1` [Compound C4]: the Kd is 0.022 ± 0.008 µM.

Turning to `O=C1Oc2cc(O)ccc2CN1c1ccc(OCCOCCN2CCOc3ccccc32)cc1` [Compound C10, 3-(4-(2-(2-(2,3-Dihydro-4H-benzo[b][1,4]oxazin-4-yl)ethoxy)ethoxy)phenyl)-7-hydroxy-3,4-dihydro-2H-benzo[e][1,3]oxazin-2-one], the Kd was 0.016 ± 0.001 µM.

Regarding `O=C1Oc2cc(O)ccc2CN1c1ccc(OCCOCCN2CCOCC2)cc1` [Compound C3, 7-Hydroxy-3-(4-(2-(2-morpholinoethoxy)ethoxy)phenyl)-3,4-dihydro-2H-benzo[e][1,3]oxazin-2-one], the Kd was 0.023 ± 0.013 µM.

For the compound `COCCOCCOc1ccc(N2Cc3ccc(O)cc3OC2=O)cc1` [Compound C2], the dissociation constant (Kd) is 0.016 ± 0.005 µM.

Regarding `COCCOc1ccc(N2Cc3ccc(O)cc3OC2=O)cc1` [Compound C1], the Kd is 0.006 ± 0.001 µM.

On to `O=C1Oc2cc(O)ccc2CN1c1ccc(OCCN2CCOCC2)cc1` [Compound C8, 7-Hydroxy-3-(4-(2-morpholinoethoxy)phenyl)-3,4-dihydro-2H-benzo[e][1,3]oxazin-2-one], for which the Kd was 0.012 ± 0.001 µM.

With `O=C1Oc2cc(O)ccc2CN1c1ccc(OCCOCCOc2cccc(N3CCOCC3)c2)cc1` [Compound C9], the dissociation constant (Kd) was 0.053 ± 0.007 µM.
